Data from ChEMBL document CHEMBL4177622, “Enhanced radical scavenging activity of a procyanidin B3 analogue comprised of a dimer of planar catechin” (Bioorg Med Chem Lett, 2017).

Assay: Antioxidant activity assessed as second order rate constant for galvinoxyl radical scavenging activity in presence of deaerated conditions by UV-Vis spectrophotometric analysis
Format: functional

| Structure (SMILES) | K |
| --- | --- |
| CC1(C)O[C@H]2Cc3c(O)cc(O)c([C@@H]4c5c(O)cc(O)cc5O[C@H](c5ccc(O)c(O)c5)[C@H]4O)c3O[C@@H]2c2cc(O)c(O)cc21 | 1.89 ×10² /mol/s |
| Oc1cc(O)c2c(c1)O[C@H](c1ccc(O)c(O)c1)[C@@H](O)[C@@H]2c1c(O)cc(O)c2c1O[C@H](c1ccc(O)c(O)c1)[C@@H](O)C2 | 1 ×10² /mol/s |
| CC1(C)O[C@H]2Cc3c(O)cc(O)cc3O[C@@H]2c2cc(O)c(O)cc21 | 1.5 ×10² /mol/s |
| CC1(C)O[C@H]2[C@H](c3c(O)cc(O)c4c3O[C@@H]3c5cc(O)c(O)cc5C(C)(C)O[C@H]3C4)c3c(O)cc(O)cc3O[C@@H]2c2cc(O)c(O)cc21 | 2.85 ×10² /mol/s |
| Oc1cc(O)c2c(c1)O[C@H](c1ccc(O)c(O)c1)[C@@H](O)C2 | 2.6 ×10¹ /mol/s |
